Reference: US20170071903A1, “USE OF ERIBULIN AND MTOR INHIBITORS AS COMBINATION THERAPY FOR THE TREATMENT OF CANCER” (Eisai R&D Management Co., Ltd., priority 2014, published 2017)
Structures can show the parent of a compound that is named as a salt. Where two headings read alike, the source gives them in different places.

Tests used:
[1] = tested on: twenty-five cell line panel; experiment: Anti-proliferation assay (ATPLite, growth inhibition), single agent dose response; assay type: cell-based; conditions: median across cell lines reaching >50% inhibition; 72 h; three-fold, ten-point dose titration
Experimental: Cells are thawed from a liquid nitrogen preserved state. […] The calculation for synergy score is provided below. […] This formula is derived from the Growth Inhibition calculation used in the National Cancer Institute's NCI-60 high throughput screen. All single agent and combination data analysis are performed in growth inhibition. Eribulin had varying activity across a twenty-five cell line panel. Single agent activity was assessed using a three-fold, ten-point dose titration. Twenty-three cell lines were evaluated in 1536-well plate format. Two additional cell lines were evaluated in 384-well plate format.

[2] = tested on: MX-1 human mammary tumor xenografts; experiment: Growth of subcutaneously-implanted MX-1 human mammary tumor xenografts in mice
Excerpt: A total of 120 tumor bearing mice were divided into twelve groups of 10 mice. […] All treatments were initiated 10 days after the implantation of tumor xenografts.
Six-weeks-old female, athymic NCr-nu/nu mice were purchased from Charles River Laboratories (Wilmington, Mass.) and acclimated in the laboratories for 10 days prior to experimentation. The animals were housed in microisolator cages, five per cage with a 12-hour light/dark cycle. The animals received filtered Birmingham municipal water and sterilized Teklad Global 16% protein rodent diet (2016S, Harlan Laboratories, Inc.) ad libitum. No consumable enrichment was provided. Enrich-n'Nest paper rolls (the Andersons Lab Bedding Products, Maumee, Ohio) were provided in each cage as manipulanda. Cages were changed twice weekly. The animals were observed daily and clinical signs were noted.
Each mouse was implanted SC near the right flank with a 30-40 mg fragment of MX-1 human mammary tumor from an in vivo passage using a 13-gauge needle. The day of tumor fragments implantation was designated as Day 0. Individual tumors of 120 animals grew to 100-245 mg in weight (100-245 mm^3 in size) on the day of treatment initiation, Day 10 after tumor fragments implantation. Those animals selected with tumors in the proper size range were assigned to twelve treatment groups so that the mean and median tumor weights in all groups on the first day of treatment were as close to each other as possible (mean tumor weights ranged from 160 to 168 mg, median tumor weights were 153 or 162 mg).
The solution was allowed to stand for 2-3 minutes to make sure it was fully in solution. […] On each day of treatment, an aliquot was thawed at room temperature and diluted with saline to yield a concentration of 0.06 mg/mL in 2.5% DMSO/97.5% saline. Lower concentrations of 0.04 and 0.02 mg/mL were achieved by dilution of a portion of the 0.06 mg/mL solution with 2.5% DMSO/97.5% saline. Bottles with dosing solutions were stored at 4° C. between formulation and administration.
0.5% MC/0.2% T80 in WFI was formulated and the solution was stored at 4° C. […] A portion of the 4 mg/mL cloudy solution was diluted with 0.5% MC/0.2% T80 in WFI to 2 mg/mL. Bottles with dosing solutions were stored at 4° C. between formulation and administration.
The experiment consisted of a vehicles-treated control group and eleven drug-treated groups of 10 mice per group for a total of 120 mice on the first day of treatment. All treatments were initiated on Day 10. […] On the days when both compounds were administered, E7389 was administered to all combination groups first [−(0)]
Animals were observed once daily for mortality and morbidity. The SC tumors were measured and the animals were weighed twice weekly starting with the first day of treatment, Day 10 after tumor fragment implantation.

[3] = Excerpt: No consumable enrichment was provided. […] Cages were changed twice weekly.
All treatments were initiated on Day 10.

[4] = everolimus 20 mg/kg/dose PO Q1Dx16 (Group 6)
[5] = everolimus 40 mg/kg/dose PO Q1Dx16 (Group 5)
[6] = E7389 0.2 mg/kg/injection IV Q4Dx4 (Group 4)
[7] = E7389 0.4 mg/kg/injection IV Q4Dx4 (Group 3)

C=C1C[C@@H]2CC[C@@]34C[C@H]5O[C@H]6[C@@H](O3)[C@H]3O[C@H](CC[C@@H]3O[C@H]6[C@H]5O4)CC(=O)C[C@@H]3[C@@H](OC)[C@@H](C[C@H](O)CN)O[C@H]3C[C@H]3O[C@@H](CC[C@@H]1O2)C[C@@H](C)C3=C [Eribulin]
GI50 [1]: 0.51 nM

CO[C@H]1C[C@@H]2CC[C@@H](C)[C@@](O)(O2)C(=O)C(=O)N2CCCC[C@H]2C(=O)O[C@H]([C@H](C)C[C@@H]2CC[C@@H](OCCO)[C@H](OC)C2)CC(=O)[C@H](C)/C=C(\C)[C@@H](O)[C@@H](OC)C(=O)[C@H](C)C[C@H](C)/C=C/C=C/C=C/1C [everolimus]
T/C value on Day 34 (median tumor weight) [2, 4]: 74% | median tumor growth delay (T-C) [2, 4]: 4.0 days | T/C value on Day 34 (median tumor weight) [2, 5]: 46% | median tumor growth delay (T-C) [2, 5]: 6.1 days | inhibition of the growth of the MX-1 mammary tumor xenografts ([2]; everolimus 40 and 20 mg/kg/dose PO): minimally effective | maximum tolerated dose (MTD) ([3]; mouse, in vivo, po): not reached

C=C1C[C@@H]2CC[C@@]34C[C@H]5O[C@H]6[C@@H](O3)[C@H]3O[C@H](CC[C@@H]3O[C@H]6[C@H]5O4)CC(=O)C[C@@H]3[C@@H](OC)[C@@H](C[C@H](O)CN)O[C@H]3C[C@H]3O[C@@H](CC[C@@H]1O2)C[C@@H](C)C3=C [E7389, II, 15:18,21:24,28-triepoxy-7,9-ethano-12,15-methano-9H,15H-furo[3,2-i]furo[2′,3′:5,6]pyrano[4,3-b][1,4]dioxacyclopentacosin-5(4H)-one, 2-[(2S)-3-amino-2-hydroxypropyl]hexacosahydro-3-methoxy-26-methyl-20,27-bis(methylene)-, (2R,3R,3aS,7R,8aS,9S,10aR,11S,12R,13aR,13bS,15S,18S,21S,24S,26R,28R,29aS)-methanesulfonate (salt)]
T/C value on Day 34 (median tumor weight) [2, 6]: 51% | median tumor growth delay (T-C) [2, 6]: > 6.3 days | T/C value on Day 34 (median tumor weight) [2, 7]: 13% | median tumor growth delay (T-C) [2, 7]: 17.7 days | number of tumor-free survivors on day of study termination (Day 62) ([2]; E7389 0.6 mg/kg/injection (Group 2)): five | number of complete tumor regressions ([2]; E7389 0.6 mg/kg/injection (Group 2), out of ten animals): six | T/C value on Day 34 (median tumor weight) ([2]; E7389 0.6 mg/kg/injection IV Q4Dx4 (Group 2)): 0% | median tumor growth delay (T-C) ([2]; E7389 0.6 mg/kg/injection IV Q4Dx4 (Group 2), time to four tumor mass doublings): > 33.8 days | inhibition of the growth of the MX-1 mammary tumor xenografts ([2]; E7389 0.6, 0.4 and 0.2 mg/kg/injection IV): very effective | tolerability / deaths ([3]; E7389 0.6, 0.4 and 0.2 mg/kg/injection IV Q4Dx4 (Groups 2-4)): tolerated without treatment-related deaths | maximum tolerated dose (MTD) ([3]; E7389 IV Q4Dx4, doses up to 0.6 mg/kg/injection): not reached | dryness of the skin ([3]; mouse, in vivo): not noted | mean body weight loss ([3]; mouse, in vivo, iv, 0.2 mg/kg): did not result in mean body weight loss | maximum mean body weight loss ([3]; mouse, in vivo, iv, 0.4 mg/kg): 1% | maximum mean body weight loss ([3]; mouse, in vivo, iv, 0.6 mg/kg): 1%
